{
  "source": "patent US5776903A",
  "about": "“Peptide derivatives usable as zinc endopeptidase 24-15 inhibitors” (Commissariat A l'Energie Atomique, priority 1995, dated 1998)",
  "key": {"endopeptidase 24-16": {"biological_target": "endopeptidase 24-16 (Homo sapiens, UniProt Q9BYT8)", "sequence (Q9BYT8 38-704)": "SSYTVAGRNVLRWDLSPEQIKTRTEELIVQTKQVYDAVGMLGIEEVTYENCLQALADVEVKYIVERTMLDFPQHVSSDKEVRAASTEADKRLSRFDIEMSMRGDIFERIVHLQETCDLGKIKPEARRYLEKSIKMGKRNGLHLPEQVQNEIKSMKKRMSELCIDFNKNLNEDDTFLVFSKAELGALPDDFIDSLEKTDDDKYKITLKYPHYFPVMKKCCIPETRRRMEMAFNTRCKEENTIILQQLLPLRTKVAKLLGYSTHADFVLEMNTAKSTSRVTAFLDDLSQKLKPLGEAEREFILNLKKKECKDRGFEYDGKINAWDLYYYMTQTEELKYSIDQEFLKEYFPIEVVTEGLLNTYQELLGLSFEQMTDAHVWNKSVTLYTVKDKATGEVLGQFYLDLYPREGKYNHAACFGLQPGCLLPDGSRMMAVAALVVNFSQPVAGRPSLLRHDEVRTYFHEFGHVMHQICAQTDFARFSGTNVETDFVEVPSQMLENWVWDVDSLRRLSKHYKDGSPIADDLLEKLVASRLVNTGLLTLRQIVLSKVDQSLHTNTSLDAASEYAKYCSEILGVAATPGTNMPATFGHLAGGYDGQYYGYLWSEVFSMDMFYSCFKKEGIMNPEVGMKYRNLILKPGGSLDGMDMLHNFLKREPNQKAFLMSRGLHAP", "experiment": "Inhibition of neurotensin degradation by purified endopeptidase 24-16 (HPLC), inhibition constant Ki", "type": "biochemical", "conditions": "neurotensin 20 μmole/l, 1 hour at 30° C., tris-HCl pH 7.5", "experimental": "This example studies the inhibiting effect of the peptides of the invention with respect to endopeptidase 24-16.\nTo this end, incubation takes place for 1 hour at 30° C. of 2 nmole (20 μmole/l) of neurotensin, which is a known endopeptidase 24-16 substrate with 8 μg of endopeptidase 24-16 purified in a final volume of 100 μl of tris-HCl buffer, 50 mM, pH 7.5, in the absence of peptide (control) or in the presence of the peptide tested at concentrations from 10^-11 to 10^-7 mole/l. After 1 hour of incubation analysis takes place of the solutions by HPLC and the inhibition constant Ki of the tested peptide is determined."}, "endopeptidase 24-15": {"biological_target": "endopeptidase 24-15 (Rattus norvegicus, UniProt P24155)", "sequence (P24155 whole entry)": "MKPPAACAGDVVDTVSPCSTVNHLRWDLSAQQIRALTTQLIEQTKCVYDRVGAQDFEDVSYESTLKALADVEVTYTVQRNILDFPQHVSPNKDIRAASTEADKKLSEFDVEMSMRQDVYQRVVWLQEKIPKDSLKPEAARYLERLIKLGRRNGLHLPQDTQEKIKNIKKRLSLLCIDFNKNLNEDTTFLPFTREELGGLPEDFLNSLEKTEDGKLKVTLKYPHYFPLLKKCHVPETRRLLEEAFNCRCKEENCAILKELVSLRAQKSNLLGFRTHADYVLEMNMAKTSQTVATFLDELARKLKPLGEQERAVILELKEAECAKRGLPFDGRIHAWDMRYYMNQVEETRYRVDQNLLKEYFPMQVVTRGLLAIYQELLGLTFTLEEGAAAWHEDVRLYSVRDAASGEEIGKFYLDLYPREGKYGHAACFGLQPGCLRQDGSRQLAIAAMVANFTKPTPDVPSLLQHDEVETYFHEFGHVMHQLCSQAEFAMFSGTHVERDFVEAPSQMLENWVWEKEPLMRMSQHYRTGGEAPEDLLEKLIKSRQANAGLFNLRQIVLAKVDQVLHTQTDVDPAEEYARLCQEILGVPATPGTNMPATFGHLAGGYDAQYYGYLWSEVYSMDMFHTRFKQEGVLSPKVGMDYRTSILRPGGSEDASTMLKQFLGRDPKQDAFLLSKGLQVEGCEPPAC", "experiment": "Inhibition of neurotensin degradation by purified endopeptidase 24-15 (HPLC), inhibition constant Ki", "conditions": "for SELECTIVITY (ratio Ki24-16 /Ki24-15): selectivity relative to endopeptidase 24-16; for Ki expected for one of the diastereoisomers of the mixture: extrapolated from Ki of the mixture of 4 diastereoisomers; for affinity difference / power factor relative to Cpp-Ala-Pro-Phe-pAb: for the expected single diastereoisomer versus known inhibitor (Ki 7 nM)", "procedure": "Incubation takes place for 1 hour at 37° C. of 2 nmole (20 μmole/l) of neurotensin, which is a known endopeptidase 24-15 substrate, with 7 μg of purified endopeptidase 24-15 in a final volume of 100 μl of tris-HCl buffer, 50 nM, pH 7.5, in the absence of an inhibitor (control) or in the presence of the peptide tested at concentrations from 10^-11 to 10^-7 mole/l. After 1 hour incubation analysis takes place of the solutions by HPLC. On the basis of this analysis the inhibition constant Ki of the tested peptide is determined."}, "[1]": {"biological_target": "endopeptidase 24-15 of the rat (Rattus norvegicus, UniProt P24155)", "sequence (P24155 whole entry)": "as above", "conditions": "as described by Dando et al; read-out: inhibition constant Ki with respect to endopeptidase 24-15 of the rat; cited from earlier work"}},
  "data": [
    {"molecule": "CCCC[C@H](NC(=O)[C@H](CCCCN)NC(=O)C(C)CP(=O)(O)C(Cc1ccccc1)NC(=O)OCc1ccccc1)C(=O)O", "note": "(mixture of isomers) [compound 23, Z--Phe .PSI. (PO2 CH2)Ala--Lys--Nle]", "values": [
      {"measurement": "Ki", "setting": "endopeptidase 24-16", "value": 162, "unit": "nM"},
      {"measurement": "Ki", "setting": "endopeptidase 24-15", "value": 0.63, "unit": "nM"},
      {"measurement": "SELECTIVITY (ratio Ki24-16 /Ki24-15)", "setting": "endopeptidase 24-15", "value": 257}
    ]},
    {"molecule": "CC(CP(=O)(O)C(Cc1ccccc1)NC(=O)OCc1ccccc1)C(=O)N[C@@H](CCCCN)C(=O)N[C@@H](C)C(=O)O", "note": "(mixture of isomers) [compound 24, Z--Phe .PSI. (PO2 CH2)Ala--Lys--Ala]", "values": [
      {"measurement": "Ki", "setting": "endopeptidase 24-16", "value": 436, "unit": "nM"},
      {"measurement": "Ki", "setting": "endopeptidase 24-15", "value": 0.83, "unit": "nM"},
      {"measurement": "SELECTIVITY (ratio Ki24-16 /Ki24-15)", "setting": "endopeptidase 24-15", "value": 525}
    ]},
    {"molecule": "CC(CP(=O)(O)C(Cc1ccccc1)NC(=O)OCc1ccccc1)C(=O)N[C@@H](CCCCN)C(=O)N[C@@H](Cc1ccccc1)C(=O)O", "note": "(mixture of isomers) [compound 25, Z--Phe .PSI. (PO2 CH2)Ala--Lys--Phe]", "values": [
      {"measurement": "Ki", "setting": "endopeptidase 24-16", "value": 1650, "unit": "nM"},
      {"measurement": "Ki", "setting": "endopeptidase 24-15", "value": 1, "unit": "nM"},
      {"measurement": "SELECTIVITY (ratio Ki24-16 /Ki24-15)", "setting": "endopeptidase 24-15", "value": 1652}
    ]},
    {"molecule": "CC(C)C[C@H](NC(=O)[C@H](CCCCN)NC(=O)C(C)CP(=O)(O)C(Cc1ccccc1)NC(=O)OCc1ccccc1)C(=O)O", "note": "(mixture of isomers) [compound 26, Z--Phe .PSI. (PO2 CH2)Ala--Lys--Leu]", "values": [
      {"measurement": "Ki", "setting": "endopeptidase 24-16", "value": 893, "unit": "nM"},
      {"measurement": "Ki", "setting": "endopeptidase 24-15", "value": 1.82, "unit": "nM"},
      {"measurement": "SELECTIVITY (ratio Ki24-16 /Ki24-15)", "setting": "endopeptidase 24-15", "value": 491}
    ]},
    {"molecule": "CC[C@H](C)[C@H](NC(=O)[C@H](CCCCN)NC(=O)C(C)CP(=O)(O)C(Cc1ccccc1)NC(=O)OCc1ccccc1)C(=O)O", "note": "(mixture of isomers) [compound 27, Z--Phe .PSI. (PO2 CH2)Ala--Lys--Ile]", "values": [
      {"measurement": "Ki", "setting": "endopeptidase 24-16", "value": 1260, "unit": "nM"},
      {"measurement": "Ki", "setting": "endopeptidase 24-15", "value": 1.94, "unit": "nM"},
      {"measurement": "SELECTIVITY (ratio Ki24-16 /Ki24-15)", "setting": "endopeptidase 24-15", "value": 652}
    ]},
    {"molecule": "CSCC[C@H](NC(=O)[C@H](CCCNC(=N)N)NC(=O)C(C)CP(=O)(O)C(Cc1ccccc1)NC(=O)OCc1ccccc1)C(=O)O", "note": "(mixture of isomers) [compound 42, Z--Phe .PSI. (PO2 CH2)Ala--Arg--Met]", "values": [
      {"measurement": "Ki", "setting": "endopeptidase 24-16", "value": 88, "unit": "nM"},
      {"measurement": "Ki", "setting": "endopeptidase 24-15", "value": 0.067, "unit": "nM"},
      {"measurement": "Ki expected for one of the diastereoisomers of the mixture", "setting": "endopeptidase 24-15", "value": "approximately 15 pM"},
      {"measurement": "affinity difference / power factor relative to Cpp-Ala-Pro-Phe-pAb", "setting": "endopeptidase 24-15", "value": 440},
      {"measurement": "SELECTIVITY (ratio Ki24-16 /Ki24-15)", "setting": "endopeptidase 24-15", "value": 1312}
    ]},
    {"molecule": "CC(CP(=O)(O)C(Cc1ccccc1)NC(=O)OCc1ccccc1)C(=O)N[C@@H](CCCNC(=N)N)C(=O)N[C@@H](Cc1ccccc1)C(=O)O", "note": "(mixture of isomers) [compound 43, Z--Phe .PSI. (PO2 CH2)Ala--Arg--Phe]", "values": [
      {"measurement": "Ki", "setting": "endopeptidase 24-16", "value": 527, "unit": "nM"},
      {"measurement": "Ki", "setting": "endopeptidase 24-15", "value": 0.158, "unit": "nM"},
      {"measurement": "Ki expected for one of the diastereoisomers of the mixture", "setting": "endopeptidase 24-15", "value": "approximately 40 pM"},
      {"measurement": "affinity difference / power factor relative to Cpp-Ala-Pro-Phe-pAb", "setting": "endopeptidase 24-15", "value": "approximately 175"},
      {"measurement": "SELECTIVITY (ratio Ki24-16 /Ki24-15)", "setting": "endopeptidase 24-15", "value": 3335}
    ]},
    {"molecule": "CC(C)CC(CP(=O)(O)C(Cc1ccccc1)NC(=O)OCc1ccccc1)C(=O)N[C@@H](CCCNC(=N)N)C(=O)N[C@@H](Cc1ccccc1)C(=O)O", "note": "(mixture of isomers) [compound 44, Z--Phe .PSI. (PO2 CH2)Leu--Arg--Phe]", "values": [
      {"measurement": "Ki", "setting": "endopeptidase 24-16", "value": 2290, "unit": "nM"},
      {"measurement": "Ki", "setting": "endopeptidase 24-15", "value": 14, "unit": "nM"},
      {"measurement": "SELECTIVITY (ratio Ki24-16 /Ki24-15)", "setting": "endopeptidase 24-15", "value": 164}
    ]},
    {"molecule": "Cpp-Ala-Pro-Phe-pAb", "values": [
      {"measurement": "Ki", "setting": "[1]", "value": 7, "unit": "nM"}
    ]}
  ]
}
